Laboratory results from article PMC12598616, “Design and optimization of caspase-1-responsive fluorescent probes for pyroptosis imaging and anti-pyroptosis drug screening” (Chemical Science, 2025).

Key:
caspase-3 = assay: Selectivity of probes: caspase-3; type: biochemical, human; details: caspase-3 1 μg/mL, 37 °C, 2 h, λex 510 nm, λem 585 nm
Description: The resin used for SPPS was purchased from GL Biochem (Shanghai, China). Lipopolysaccharide (LPS, L2630), Nigericin and ATP (11140965001) were purchased from Merck (Shanghai, China) and Invitrogen (Shanghai, China), respectively. Cell culture plates were sourced from Wuxi NEST Biotechnology. Recombinant human caspase-1, caspase-3, caspase-4, and caspase-8 were obtained from Abcam and MCE (Shanghai, China). Anti-cleaved caspase-1 antibody, anti-GAPDH antibody, and goat anti-Rabbit/anti-mouse lgG/HRP were purchased from CST (USA) and Beyotime […]
(Shanghai, China). […]
Medical College (ethical approval number ZJCLA-IACUC-20011003). […]
To investigate the sensitivity of the probes for caspase-1, varying concentration of caspase-1 (0, 0.2, 0.4, 0.6, 0.8, 1.0, 1.25, 1.5, 1.75, 2, 2.5, 3 U/mL) were incubated with FPy1 (5 μM), YPy1 (5 μM) and WPy1 (5 μM) respectively in caspase-1 assay buffer (50 mM HEPES, 50 mM NaCl, 0.1 % chaps, 5 % glycerol, 10 mM DTT, 10 mM EDTA) at 37 °C for 2 hours. Fluorescence spectra were recorded using Hitachi F-2700 spectrophotometer with an excitation at 510 nm (Photomultiplier voltage 700 V; Slit widths ex: 10 nm and em =5.0 nm). […] The limit of detection (LoD) was calculated from 3σ/k, in which σ represents the standard deviation of 15 blank measurements. […]
10 nm and em =5.0 nm). The fluorescence intensity of FPy1, YPy1 and WPy1 at 585 nm were plotted separately against […]

Cas-1 in THP-1 cells = assay: Confocal fluorescence imaging of Cas-1 in THP-1 cells; type: cell-based; details: for intracellular fluorescence intensity, ATP stimulation / intracellular fluorescence intensity, Nig stimulation: LPS 1 μg/mL 4 h, probe 5 μM 1 h; for intracellular fluorescence intensity, ATP stimulation: then ATP 2 mM 0, 1, 2 h; for intracellular fluorescence intensity, Nig stimulation: then Nig 10 μM 0, 1, 2 h
Description: To assess the capability of FPy1 and YPy1 to monitor endogenous Cas-1, the classic NLRP3 inflammasome-mediated Cas-1 activation model was established in THP-1 cells. THP-1 cells were initially stimulated with LPS (1 μg mL^−1) for 4 h to prime the production of NLRP3 inflammasome-associated proteins. Subsequently, the cells were stimulated with Nigericin (Nig, 10 μM) or ATP (2 mM) for various durations to induce the activation of Cas-1 and the pyroptosis-related pathway. The THP-1 cells were further stained with FPy1 or Ypy1 (5 μM) for 1 h and imaged (Fig. 3a). […] Western blot (WB) analysis confirmed that, regardless of whether Nig or ATP was used as the stimulant, the level of activated Cas-1 was consistent with the fluorescence imaging results (Fig. S8a–d). […] Therefore, FPy1 may be a more suitable candidate for monitoring low caspase-1 levels in subsequent imaging studies. […] To investigate the distribution of FPy1 within cells, THP-1 cells were co-stained with FPy1 and commercially available organelle-tracking dyes, including Mito-Tracker Green (mitochondria), Golgi-Tracker Green (Golgi apparatus), Lyso-Tracker Green (lysosomes) and ER-Tracker Green (endoplasmic reticulum). All dyes were imaged in the green fluorescence channel to avoid overlap with the red emission of FPy1 (Fig. 3f–i). […] The corresponding Pearson's correlation coefficients for mitochondria, Golgi apparatus, lysosomes, and endoplasmic reticulum were 0.4954, 0.4320, 0.5682, and 0.4448, respectively. […] To further confirm the specificity of FPy1 for Cas-1 imaging in living cells, THP-1 cells with Cas-1 knockdown via siRNA were constructed. […]
Intracellular imaging with FPy1 in THP-1 cells
THP-1 cells were seeded in dishes and cultured overnight. After stimulation with LPS (1 μg/mL in RPMI 1640 medium) for 4 hours, the cells were further treated with Nig (10 μM) or ATP (2 mM) for 0, 1, 2 hours. The medium was then replaced with fresh medium with FPy1 (5 μM), and cells were incubated at 37 °C for 1 hour before being washed twice […]
with PBS. […]
After washing, the THP-1 cells were separately incubated with commercially available dyes targeting mitochondria (Mito-Tracker Green), lysosomes (Lyso-Tracker Green), endoplasmic reticulum (ER-Tracker Green), and Golgi apparatus (Golgi-Tracker Green) for 30 minutes. […]
Nucleus pulposus spheroid cultivation […]
Intracellular imaging in nucleus pulposus cells and 3D cell spheroids
The primary nucleus pulposus cells or 3D cell spheroids were seeded in dishes and cultured overnight. […]

Row | Substance | fluorescence response to caspase-3 (caspase-3) | fluorescence increase relative to YPy1 (Cas-1 in THP-1 cells; 2 h of Nig or ATP stimulation, probe 5 μM) | intracellular fluorescence intensity, ATP stimulation (Cas-1 in THP-1 cells) | intracellular fluorescence intensity, Nig stimulation (Cas-1 in THP-1 cells)
1 | –FLTDG– [FPy1, RhoB donor, hNR quencher] | almost no response | slightly higher than that of YPy1 | increased with prolonged stimulation time | increased with prolonged stimulation time
2 | –YVADG– [YPy1, caspase-1-responsive FRET probe with recognition peptide –YVADG–; RhoB donor, hNR quencher] | almost no response | – | increased with prolonged stimulation time | increased with prolonged stimulation time
